Measurements published in US6921821B2, “Antagonists of melanin concentrating hormone receptor” (Abbott Laboratories, priority 2002, dated 2005).
Where a name gives a salt, the structure may show the parent alone.

Biological target: T1, murine MCHR (Mus musculus, UniProt Q8JZL2)
T1 construct: expressed in transfected cells; host or cells: HEK293
Experiment: Assay for release of intracellular calcium (FLIPR, Fluo-4), inhibition of MCH-induced Ca++ flux
Type: cell-based
Conditions: test compound at a dose of 10 μM, HEK293 cells expressing the murine MCHR, read-out: inhibition of MCH (MCH induced Ca++ flux / fluorescence)
In short: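 HEK293 cells expressing murine MCHR were loaded with Fluo-4AM (2.5 μM) and given compound (40 μM stock in 4% DMSO), with 3 min monitoring for agonism. They were then challenged with mouse MCH (12 nM as added) and FLIPR fluorescence followed 3 min more. % inhibition of MCH-induced Ca++ flux was calculated against baseline and no-compound signals.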

T1 sequence (Q8JZL2 whole entry): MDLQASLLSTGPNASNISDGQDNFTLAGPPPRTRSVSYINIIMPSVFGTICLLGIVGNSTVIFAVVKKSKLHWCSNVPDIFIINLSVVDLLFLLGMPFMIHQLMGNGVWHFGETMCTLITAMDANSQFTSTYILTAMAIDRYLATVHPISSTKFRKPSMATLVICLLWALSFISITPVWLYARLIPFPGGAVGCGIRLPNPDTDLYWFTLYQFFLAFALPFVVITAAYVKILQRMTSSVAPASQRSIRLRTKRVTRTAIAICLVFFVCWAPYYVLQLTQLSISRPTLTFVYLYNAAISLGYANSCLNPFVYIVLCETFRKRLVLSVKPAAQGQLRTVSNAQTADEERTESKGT

| Compound | inhibition at 10 µM |
| --- | --- |
| COc1ccc2oc(=O)cc(NC3CCN(Cc4ccc(O)c(F)c4)CC3)c2c1 [II-88, 4-[1-(3-Fluoro-4-hydroxy-benzyl)-piperidin-4-ylamino]-6-methoxy-chromen-2-one hydrochloride] | ≥ 50% |
| N#Cc1c(NC2CCN(Cc3ccc4c(c3)OCO4)CC2)c2cc(Cl)ccc2[nH]c1=O [Compound V-27, 4-(1-Benzo[1,3]dioxol-5-ylmethyl-piperidin-4-ylamino)-6-chloro-2-oxo-1,2-dihydro-quinoline-3-carbonitrile] | ≥ 50% |
| Cc1ccc(CN2CCC(Nc3cc(=O)oc4ccc(Cl)cc34)CC2)cc1C [II-71, 6-Chloro-4-[1-(3,4-dimethyl-benzyl)-piperidin-4-ylamino]-chromen-2-one] | ≥ 50% |
| COc1ccc2oc(=O)cc(NC3CCN(Cc4ccc(Cl)c(F)c4)CC3)c2c1 [II-58, 4-[1-(4-Chloro-3-fluoro-benzyl)-piperidin-4-ylamino]-6-methoxy-chromen-2-one trifluoroacetate] | ≥ 50% |
| Cn1c(=O)cc(NC2CCN(Cc3ccc4c(c3)OCO4)CC2)c2cc(C(F)(F)F)ccc21 [Compound V-31, 4-(1-Benzo[1,3]dioxol-5-ylmethyl-piperidin-4-ylamino)-1-methyl-6-trifluoromethyl-1H-quinolin-2-one] | ≥ 50% |
| CC(c1ccc2ncccc2c1)N1CCC(Nc2cc(=O)oc3ccc(Cl)cc23)CC1 (racemic) [II-106, 6-Chloro-4-[1-(1-quinolin-6-yl-ethyl)-piperidin-4-ylamino]-chromen-2-one] | ≥ 50% |
| Cc1cc(C)c2oc(=O)cc(NC3CCN(Cc4ccc5c(c4)OCO5)CC3)c2c1 [II-98, 4-(1-Benzo[1,3]dioxol-5-ylmethyl-piperidin-4-ylamino)-6,8-dimethyl-chromen-2-one] | ≥ 50% |
| COc1ccc2oc(=O)cc(NC3CCN(Cc4ccc(OCCCN5CCCCC5)c(F)c4)CC3)c2c1 [II-47, 4-{1-[3-Fluoro-4-(3-piperidin-1-yl-propoxy)-benzyl]-piperidin-4-ylamino}-6-methoxy-chromen-2-one; Double TFA Salt] | ≥ 50% |
| Cc1ccc2oc(=O)c(F)c(NC3CCN(Cc4ccc5c(c4)OCO5)CC3)c2c1 [II-89, 4-(1-Benzo{1,3}dioxol-5-ylmethyl-piperidin-4-ylamino)-3-fluoro-6-methylchromene-2-one] | ≥ 50% |
| O=c1cc(NC2CCN(Cc3ccc4c(c3)CCO4)CC2)c2cc(Cl)ccc2o1 [II-78, 6-Chloro-4-[1-(2,3-dihydro-benzofuran-5-ylmethyl)-piperidin-4-ylamino]-chromen-2-one] | ≥ 50% |
| N#Cc1ccc2oc(=O)cc(NC3CCN(C/C=C/c4ccccc4)CC3)c2c1 [III-59, 2-Oxo-4-[1-(3-phenyl-allyl)-piperidin-4-ylamino]-2H-chromene-6-carbonitrile] | ≥ 50% |
| CN(C)C(=O)c1c(NC2CCN(Cc3ccc4c(c3)OCO4)CC2)c2cc(Br)ccc2n(C)c1=O [Compound V-42, 4-(1-Benzo[1,3]dioxol-5-ylmethyl-piperidin-4-ylamino)-6-bromo-1-methyl-2-oxo-1,2-dihydro-quinoline-3-carboxylic acid dimethylamide] | ≥ 50% |
| O=c1cc(NC2CCN(Cc3ccc4c(c3)OCO4)CC2)c2cc(Cl)c(Cl)cc2o1 [II-117, (4-Benzo[1,3]dioxol-5-ylmethyl-piperidin-4-ylamino)-6,7-dichloro-chromen-2-one] | ≥ 50% |
| COc1ccc2oc(=O)cc(NC3CCN(Cc4ccc5c(ccn5C)c4)CC3)c2c1 [II-111, 6-Methoxy-4-[N-methylindole-5-ylmethyl-piperidin-4-ylamino]chromen-2-one] | ≥ 50% |
| Cn1c(=O)cc(NC2CCN(C/C=C/c3ccccc3)CC2)c2ccccc21 [Compound V-47, 1-Methyl-4-[1-(3-phenyl-allyl)-piperidin-4-ylamino]-1H-quinolin-2-one] | ≥ 50% |
| O=C(NCCN1CCCC1)c1ccc(CN2CCC(Nc3cc(=O)oc4ccc(Cl)cc34)CC2)cc1 [II-55, 4-[4-(6-Chloro-2-oxo-2H-chromen-4-ylamino)-piperidin-1-ylmethyl]-N-(2-pyrrolidin-1-yl-ethyl)-benzamide; Double TFA Salt] | ≥ 50% |
| CC(c1ccc2c(c1)OCO2)N1CCC(Nc2c(C(=O)N(C)C)c(=O)n(C)c3ccc(Cl)cc23)CC1 (stereo not shown) [Compound V-34, 4-[1-(1-Benzo[1,3]dioxol-5-yl-ethyl)-piperidin-4-ylamino]-6-chloro-1-methyl-2-oxo-1,2-dihydro-quinoline-3-carboxylic acid dimethylamide] | ≥ 50% |
| O=C1CCCN1c1cc(Cl)cc2c(NC3CCN(Cc4ccc5c(c4)OCO5)CC3)cc(=O)oc12 [II-81] | ≥ 50% |
| CCc1ccc2c(c1)c(NC1CCN(Cc3ccc4occc4c3)CC1)cc(=O)n2CC [Compound V-28, 4-(1-Benzofuran-5-ylmethyl-piperidin-4-ylamino)-1,6-diethyl-1H-quinolin-2-one] | ≥ 50% |
| COc1ccc2c(c1)c(NC1CCN(Cc3ccc4c(c3)OCO4)CC1)cc(=O)n2C [Compound V-8, 4-(1-Benzo[1,3]dioxol-5-ylmethyl-piperidin-4-ylamino)-6-methoxy-1-methyl-1H-quinolin 2-one] | ≥ 50% |
| O=c1cc(NC2CCN(Cc3ccc4c(c3)OCCCO4)CC2)c2cc(Cl)ccc2o1 [II-51, 6-Chloro-4-[1-(3,4-dihydro-2H-benzo[b][1,4]dioxepin-7-ylmethyl)-piperidin-4-ylamino]-chromen-2-one] | ≥ 50% |
| C=Cc1ccc2oc(=O)cc(NC3CCN(Cc4ccc5c(c4)OCO5)CC3)c2c1 [II-35, 4-(1-Benzo[1,3]dioxol-5-ylmethyl-piperidin-4-ylamino)-6-vinyl-chromen-2-one] | ≥ 50% |
| N#Cc1ccc2oc(=O)cc(NC3CCN(Cc4ccc5occc5c4)CC3)c2c1 [II-114, 4-(1-Benzofuran-5-ylmethyl-piperidin-4-ylamino)-2-oxo-2H-chromene-6-carbonitrile] | ≥ 50% |
| O=c1cc(NC2CCN(Cc3ccncc3)CC2)c2cc(Cl)ccc2n1Cc1ccncc1 [Compound V-35, 6-Chloro-1-pyridin-4-ylmethyl-4-(1-pyridin-4-ylmethyl-piperidin-4-ylamino)-1H-quinolin-2-one] | ≥ 50% |
| COc1ccc2oc(=O)cc(NC3CCN(Cc4ccccc4)CC3)c2c1 [II-102, 4-(1-Benzyl-piperidin-4-ylamino)-6-methoxy-chromen-2-one trifluoroacetate] | ≥ 50% |
| Cn1c(=O)cc(NC2CCN(Cc3ccc4occc4c3)CC2)c2cc(C(F)(F)F)ccc21 [Compound V-33, 4-(1-Benzofuran-5-ylmethyl-piperidin-4-ylamino)-1-methyl-6-trifluoromethyl-1H-quinolin-2-one] | ≥ 50% |
| O=c1cc(NC2CCN(Cc3ccc4c(c3)OCO4)CC2)c2cc(Cl)ccc2n1CC(F)(F)F [Compound V-7, 4-(1-Benzo[1,3]dioxol-5-ylmethylpiperidin-4-ylamino)-6-chloro-1-(2,2,2-trifluoroethyl)-1H-quinolin-2-] | ≥ 50% |
| NC(=O)c1cccc(CN2CCC(Nc3cc(=O)oc4ccc(Cl)cc34)CC2)c1 [II-99, 3-[4-(6-Chloro-2-oxo-2H-chromen-4-ylamino)-piperidin-1-ylmethyl]-benzamide] | ≥ 50% |
